Results as given in patent US8247420B2, “Compositions, synthesis, and methods of using quinolinone based atypical antipsychotic agents” (Reviva Pharmaceuticals, Inc., priority 2007, dated 2012).
Counter-ions that a name gives are not always drawn.

How the values were obtained:
[1] = target: T1, Serotonin, 5HT1A (human recombinant) (Homo sapiens, UniProt P08908); test: Serotonin, 5HT1A (human recombinant) radioligand binding assay ([3H]-8-OH-DPAT); conditions: human recombinant in HEK-293 cells
T1 construct: expressed in transfected cells; host or cells: HEK-293 cells
T1 sequence (P08908 1-422): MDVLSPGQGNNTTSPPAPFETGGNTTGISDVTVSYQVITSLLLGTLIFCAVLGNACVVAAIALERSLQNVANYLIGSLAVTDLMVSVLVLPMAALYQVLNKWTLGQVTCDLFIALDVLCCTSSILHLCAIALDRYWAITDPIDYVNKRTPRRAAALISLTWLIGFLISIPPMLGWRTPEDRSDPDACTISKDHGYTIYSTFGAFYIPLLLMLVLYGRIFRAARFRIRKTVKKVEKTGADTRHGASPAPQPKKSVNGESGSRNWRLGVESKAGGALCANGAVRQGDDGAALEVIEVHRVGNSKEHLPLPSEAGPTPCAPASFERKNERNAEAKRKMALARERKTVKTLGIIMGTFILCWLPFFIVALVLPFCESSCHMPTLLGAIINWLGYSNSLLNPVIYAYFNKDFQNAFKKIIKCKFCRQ
Protocol: The reactions were carried out in 50 mM TRIS-HCl (pH 7.4) containing 10 mM MgSO4, 0.5 mM EDTA and 0.1% Ascorbic acid at room temperature for 1 hour. The reaction was terminated by rapid vacuum filtration onto glass fiber filters. Radioactivity trapped onto the filters was determined and compared to control values in order to ascertain any interactions of test compounds with the cloned serotonin-5HT1A binding site (Literature Reference: Hoyer, D. et al. Eur. Journal Pharmacol. 1985, 118, 13-23; Schoeffter, P. and Hoyer, D. Naunyn-Schmiedeberg's Arch. Pharmac. 1989, 340, 135-138)
(§1) The radioligand binding assays for dopamine-D2S and serotonin-5HT1A were carried out at six different concentrations and the test concentrations were 1 nM, 5 nM, 10 nm 50 nM, 100 nM and 500 nM. The radioligand binding assays for serotonin-5HT2A were carried out at seven different concentrations and the test concentrations were 5 nM, 10 nM, 50 nM, 100 nM, 500 nM, 1 uM, and 300 uM.

[2] = target: T2, Dopamine, D2S (human recombinant) (Homo sapiens, UniProt P14416); test: Dopamine, D2S (human recombinant) radioligand binding assay ([3H]Spiperone); conditions: human recombinant in CHO cells
T2 construct: expressed in transfected cells; host or cells: CHO cells
T2 sequence (P14416 1-414 isoform P14416-2): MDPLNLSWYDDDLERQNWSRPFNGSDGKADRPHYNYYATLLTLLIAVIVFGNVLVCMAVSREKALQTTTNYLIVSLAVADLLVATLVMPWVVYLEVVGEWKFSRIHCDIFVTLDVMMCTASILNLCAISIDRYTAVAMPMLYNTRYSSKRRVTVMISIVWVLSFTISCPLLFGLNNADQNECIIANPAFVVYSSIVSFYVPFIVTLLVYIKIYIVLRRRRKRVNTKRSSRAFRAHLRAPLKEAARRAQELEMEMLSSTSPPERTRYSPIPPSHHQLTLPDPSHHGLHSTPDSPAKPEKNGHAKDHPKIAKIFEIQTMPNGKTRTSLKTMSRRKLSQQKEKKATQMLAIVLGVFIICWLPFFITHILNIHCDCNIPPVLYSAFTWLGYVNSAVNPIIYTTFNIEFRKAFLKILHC
Protocol: The reactions were carried out in 50 mM TRIS-HCl (pH 7.4) containing 120 mM NaCl, 5 mM KCl, 5 mM MgCl2, 1 mM EDTA for 60 minutes at 25 C. The reaction was terminated by rapid vacuum filtration onto glass fiber filters. Radioactivity trapped onto the filters was determined and compared to control values in order to ascertain any interactions of test compounds with the cloned dopamine-D2 short binding site (Literature Reference: Jarvis, K. R. et al. Journal of Receptor Research 1993, 13(1-4), 573-590; Gundlach, A. L. et al. Life Sciences 1984, 35, 1981-1988.)
as §1

Serotonin, 5HT2A (human) = Serotonin, 5HT2A (human) (Homo sapiens, UniProt P28223); test: Serotonin, 5HT2A (human) radioligand binding assay ([3H]-Ketanserin); conditions: human cortex
Chain of Serotonin, 5HT2A (human) (P28223 whole entry): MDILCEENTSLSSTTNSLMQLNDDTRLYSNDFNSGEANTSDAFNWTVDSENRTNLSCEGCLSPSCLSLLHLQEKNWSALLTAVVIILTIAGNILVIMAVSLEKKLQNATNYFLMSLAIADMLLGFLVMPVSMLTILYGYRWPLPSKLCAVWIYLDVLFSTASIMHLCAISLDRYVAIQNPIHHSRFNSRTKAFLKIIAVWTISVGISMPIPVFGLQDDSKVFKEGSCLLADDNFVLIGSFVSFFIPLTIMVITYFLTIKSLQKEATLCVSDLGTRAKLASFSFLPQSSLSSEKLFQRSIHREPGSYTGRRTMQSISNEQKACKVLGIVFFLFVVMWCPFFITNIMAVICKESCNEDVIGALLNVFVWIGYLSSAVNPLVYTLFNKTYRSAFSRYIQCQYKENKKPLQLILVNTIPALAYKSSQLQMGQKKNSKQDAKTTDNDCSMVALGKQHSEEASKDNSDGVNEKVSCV
Protocol: The reactions were carried out in 50 mM TRIS-HCl (pH 7.6) at room temperature for 90 minutes. The reaction was terminated by rapid vacuum filtration onto glass fiber filters. Radioactivity trapped onto the filters was determined and compared to control values in order to ascertain any interactions of test compounds with the serotonin-5HT2A binding site (Literature Reference: Leysen, J. E. et al. Mol. Pharmacol. 1982, 21, 301-314; Martin, G. R. and Humphrey, P. P. A. Neuropharmacol. 1994, 33(3/4), 261-273.)
as §1

| Structure (SMILES) | IC50 [1] [nM] | Ki [1] [nM] | IC50 [2] [nM] | Ki [2] [nM] | IC50 (Serotonin, 5HT2A (human)) [nM] | Ki (Serotonin, 5HT2A (human)) [nM] |
| --- | --- | --- | --- | --- | --- | --- |
| CCOC(=O)CCCOc1ccccc1N1CCN(CCCCOc2ccc3c(c2)NC(=O)CC3)CC1 [Compound 9a, Ethyl 4-(2-(4-(4-(2-oxo-1,2,3,4-tetrahydroquinolin-7-yloxy)butyl)piperazin-1-yl)phenoxy)butanoat hydrochloride] | 6.61 | 3.93 | 5.83 | 1.69 | 456 | 239 |
| O=C1CCc2ccc(C(=O)OCCCN3CCN(c4cccc(Cl)c4Cl)CC3)cc2N1 [Compound 24b, 3-(4-(2,3-Dichlorophenyl)piperazin-1-yl)propyl 2-oxo-1,2,3,4-tetrahydroquinoline-7-carboxylate hydrochloride] | 28 | 16 | 72.9 | 17 | 253 | 147 |
| O=C1CCc2ccc(COC(=O)CCCN3CCN(c4cccc(Cl)c4Cl)CC3)cc2N1 [Compound 39d, (2-Oxo-1,2,3,4-tetrahydroquinolin-7-yl)methyl 4-(4-(2,3-dichlorophenyl)piperazin-1-yl)butanoate] | 85 | 48.5 | 54.7 | 12.8 | 313 | 171 |
